Tests used:
[1] = tested on: on-target and off-target genomic loci (NF2, NF1, MED12 and other top-ranking genes); assay: Deep sequencing of on-target and off-target loci for allele modification in A375 cells; type: cell-based, human; conditions: 7 and 14 days post-transduction
Excerpt: Applicants validated top ranking genes from the GeCKO screen individually using 3-5 sgRNAs (FIGS. 28C-E, 38, 39). […] Applicants compared sgRNA and shRNA-mediated protein depletion and PLX resistance using Western blot (FIG. 28D) and cell growth assays (FIG. 28E). […] Additionally, sgRNAs targeting NF1, MED12, CUL3, TADA1, and TADA2B led to a decrease in protein expression and increased resistance to PLX (FIGS. 38, 39).
Screening timeline considerations: After infection, cells are selected with puromycin. For most cell types, 0.5-2 ug/ml puromycin works well, although the minimum dose that kills all cells without any viral transduction should be determined in advance and the minimum concentration should be used for selection. […] As shown in the deep sequencing of the individual target (array) validations from the PLX resistance screen gene hits, genome modification increases over time. For most targets, genome modification was nearly complete after only 7 days.
Sequencing data analysis and indel detection: Off target loci in the human genome were identified for individual spacers using the CRISPR design tool (available at the website tools.genome-engineering.org). On-target and off-target loci were PCR amplified using Herculase II Fusion polymerase (Agilent), normalized, and pooled in equimolar proportions. Pooled libraries were denatured, diluted to a 14 pM concentration and sequenced using the MiSeq Personal Sequencer (Illumina). Sequencing data was demultiplexed using paired barcodes, aligned to reference amplicons, and analyzed for indels as described previously. Indel length analysis was performed by mapping the distance between multiple short reference sequences in individual reads.

[2] = tested on: human EMX1 locus; assay: Surveyor nuclease assay for genome modification at the human EMX1 locus in HEK 293FT cells; type: cell-based; conditions: co-expression with EMX1-targeting chimeric crRNA, n=3
Method: Mouse neuro2A (N2A) cell line (ATCC) was maintained with DMEM supplemented with 5% fetal bovine serum (HyClone), 2 mM GlutaMAX (Life Technologies), 100 U/mL penicillin, and 100 μg/mL streptomycin at 37° C. with 5% CO2.
Cells were transfected using Lipofectamine 2000 (Life Technologies) following the manufacturer's recommended protocol. For each well of a 24-well plate a total of 800 ng of plasmids were used.
Genomic DNA was extracted using the QuickExtract DNA extraction kit (Epicentre) following the manufacturer's protocol. […] Extracted genomic DNA was immediately processed or stored at −20° C.
The genomic region surrounding a CRISPR target site for each gene was PCR amplified, and products were purified using QiaQuick Spin Column (Qiagen) following manufacturer's protocol. […] After re-annealing, products were treated with Surveyor nuclease and Surveyor enhancer S (Transgenomics) following the manufacturer's recommended protocol, and analyzed on 4-20% Novex TBE poly-acrylamide gels (Life Technologies). […] Quantification was based on relative band intensities, as a measure of the fraction of cleaved DNA.

Row | Substance | off-target modification over time [1] | further results
1 | MED12_sg2: sgRNA 20 bp sequence CGTCAGCTTCAATCCTGCCA (expressed or natural sequence) | off-target modification also increases with time | 
2 | NF2_sg4: sgRNA 20 bp sequence GTACTGCAGTCCAAAGAACC (expressed or natural sequence) | off-target modification also increases with time | 
3 | NF2_sg5: sgRNA 20 bp sequence CACAGTGGCCTGGCTCAAAA (expressed or natural sequence) |  | on-target genome modification over time [1]: lower modification that increased by 14 days post-transduction
4 | SpCas9n: SpCas9 nickase with aspartate-to-alanine substitution (D10A) in the RuvC I catalytic domain |  | indels at the EMX1 protospacer target (Surveyor assay) [2]: does not generate indels

Reference: patent publication US10781444B2, “Functional genomics using CRISPR-Cas systems, compositions, methods, screens and applications thereof” (THE BROAD INSTITUTE, INC., priority 2013, dated 2020)
